# Assay: physchem
# Settings: aqueous with cosolvent or surfactant or cyclodextrin
structure (smiles),measurement,value
CC1=C(/C=C/C(C)=C/C=C/C(C)=C/C=C/C=C(C)/C=C/C=C(C)/C=C/C2=C(C)CCCC2(C)C)C(C)(C)CCC1 [β-carotene],solubility,~50 µg/mL
